Measured values from US6656492B2, “Quick disintegrating tablet in buccal cavity and manufacturing method thereof” (Yamanouchi Pharmaceutical Co., Ltd., priority 2000, dated 2003).
Counter-ions that a name gives are not always drawn.

Assay: Fluidity evaluation: angle of repose determination (fixed base cone method)
Type: physicochemical
Conditions: for fluidity (judgement in words): fixed base cone method
Excerpt: The term “fluidity” in the present Specification means adhesion and cohesion between particles or adhesion of a particle with a solid wall surface. Said “fluidity” can be put into numerical terms by, for instance, methods of determining the angle of repose of a powder. Methods of determining the angle of repose are known to those in the field, but the fixed base cone method by funnel is an example (for instance, “Yakuzaigaku,” Ryuichi Arita, Hitoshi Sezaki, editors (Kodansha Scientific), p. 182). […] R. L. Jr., Chemical Engineering, Jan. 18, p. 166, Table II, 1965).
[Fluidity evaluation: angle of repose determination] A funnel for pouring powder is placed above a table for determination of the angle of repose. The angle formed by the surface of a layer of accumulated powder and a horizontal plane when the powder is poured so that none remains in the funnel is determined and this angle (°) serves as the angle of repose.

Nc1c(Br)cc(Br)cc1CN[C@H]1CC[C@H](O)CC1 [amboxol hydrochloride, ambroxol hydrochloride]
fluidity (judgement in words): could not be fed by funnel even using the vibrator

O=C([O-])[O-].[Ca+2] [calcium carbonate undiluted powder, calcium carbonate]
angle of repose (determination performed with a vibrator): 50 °
fluidity (judgement in words): fluidity was not good

NC(N)=Nc1nc(CSCCC(N)=NS(N)(=O)=O)cs1 [famotidine undiluted powder, famotidine]
fluidity (judgement in words): extremely inferior fluidity
